How the values were obtained:
TH mRNA = experiment: Real time RT-PCR of TH mRNA in SH-SY5Y cells; format: cell-based, human; conditions: 24 h, treatment alone vs control
Protocol: (§1) Human neuroblastoma SH-SY5Y cells were grown in DMEM/F12 medium containing 10% fetal bovine serum (FBS) and 1% antibiotic/antimycotic mix. Cells were maintained at 37° C. in a saturated humidity atmosphere containing 95% air and 5% CO2.
Total RNA was isolated and extracted from treated cells using the 5 prime “PerfectPure RNA tissue kit” (5 Prime, Inc., Gaithersburg, Md.). RNA estimation was performed using “Quant-iT RNA Assay Kit” using a Qubit fluorometer according to the manufacturer's protocol (Invitrogen, Carlsbad, Calif.). cDNA was synthesized by reverse transcribing 1 μg of extracted RNA using an “iScript cDNA synthesis kit” (BioRad, Hercules, Calif.). The oligomeric primers (Sigma, St Louis, Mo.) used to amplify the TH mRNA and α-synuclein mRNA are enumerated in Table 1. The cDNA amplification was performed using an iQ SYBR Green Supermix kit following the manufacturer's instructions (BioRad, Hercules, Calif.). The amplification was performed using an iCycler iQ Multicolor Real Time PCR Detection System (BioRad, Hercules, Calif.). The expression of specific TH and α-synuclein transcripts amplified were normalized to the expression of glyceraldehyde-3-phosphate dehydrogenase (GAPDH).

ERβ = biological target: T1, ERβ (Homo sapiens, UniProt Q92731); experiment: Western blot of ERβ levels in the nucleus (nuclear translocation), SH-SY5Y cells; format: cell-based; conditions: 24 h, treatment alone vs control
T1 construct: endogenous in cells; host or cells: SH-SY5Y human neuroblastoma cells
T1 sequence (Q92731 whole entry): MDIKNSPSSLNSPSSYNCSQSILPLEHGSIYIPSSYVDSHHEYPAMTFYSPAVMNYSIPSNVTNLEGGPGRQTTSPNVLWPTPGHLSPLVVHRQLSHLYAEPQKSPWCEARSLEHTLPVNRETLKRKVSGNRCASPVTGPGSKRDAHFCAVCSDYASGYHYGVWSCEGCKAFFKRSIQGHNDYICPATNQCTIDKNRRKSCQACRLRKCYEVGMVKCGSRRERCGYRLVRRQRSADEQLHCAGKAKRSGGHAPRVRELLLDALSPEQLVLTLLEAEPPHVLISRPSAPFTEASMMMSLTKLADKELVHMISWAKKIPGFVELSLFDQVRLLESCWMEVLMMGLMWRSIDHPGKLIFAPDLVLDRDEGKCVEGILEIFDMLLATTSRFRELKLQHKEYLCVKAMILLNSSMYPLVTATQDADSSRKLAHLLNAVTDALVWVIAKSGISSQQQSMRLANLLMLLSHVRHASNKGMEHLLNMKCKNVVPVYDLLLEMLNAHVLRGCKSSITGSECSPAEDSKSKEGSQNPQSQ
Protocol: as §1
Treated SH-SY5Y cells were washed with PBS and trypsinized to collect the cells and centrifuged at 5000 g. The pellet was washed again with PBS and homogenized in NE-PER tissue protein extraction reagent (Thermo Scientific, Rockford, Ill.) supplemented with protease and phosphatase inhibitors. Protein concentrations from the cytosolic and nuclear homogenates were determined with BCA protein assay.
Proteins (10 μg) were separated on SDS-PAGE gels, transferred to a polyvinylidene difluoride membrane (BioRad, Hercules, Calif.), and incubated with the following monoclonal antibodies: anti-TH mouse antibody (1:1000; Sigma Aldrich, Saint Louis, Mo.), anti-α-synuclein mouse antibody (1:500; Chemicon, Temecula, Calif.), anti-ERα rabbit antibody (1:500; Abcam, Cambridge, Mass.), anti-ERβ rabbit antibody (1:200; Upstate, Lake Placid, N.Y.), anti-LXRα rabbit antibody (1:500; Abcam, Cambridge, Mass.), anti-LXRβ mouse antibody (1:500; Abcam, Cambridge, Mass.).
β-actin and Lamin A were used as a gel loading control for cytosolic homogenates and nuclear homogenates respectively. The blots were developed with enhanced chemiluminescence (Immmun-star HRP chemiluminescent kit, Bio-Rad, Hercules, Calif.). Bands were visualized on a polyvinylidene difluoride membrane and analyzed by LabWorks 4.5 software on a UVP Bioimaging System (Upland, Calif.). Quantification of results was performed by densitometry and the results analyzed as total integrated densitometric values (arbitrary units).

[1] = test system: ERE-mediated transcription; experiment: Dual-luciferase ERE reporter assay (ER-mediated transcription); format: cell-based, human; conditions: SH-SY5Y transfected with ERE-luciferase, 24 h
Protocol: Constructs encoding ERE and TH promoter conjugated to the firefly luciferase gene were used in the study. Human neuroblastoma SH-SY5Y cells were plated in 96-well plates at a density of 2×10^4 cells/well.
The cells were transfected when 80% confluent with 0.25 μg of either ERE-firefly Luciferase reporter construct, LXRE-firefly Luciferase reporter construct, or TH promotor-firefly Luciferase promoter construct. Respective non-inducible reporter constructs containing constitutively expressing Renilla luciferase were used as negative internal controls. Constitutively expressing GFP constructs were used as positive control to determine transfection efficiency.
Cells were incubated for 24 hours with Opti-MEM serum free medium (Invitrogen, Carlsbad, Calif.) containing the reporter constructs dissolved in transfection reagent. After 24 hours the medium was changed and the cells were incubated in normal DMEM/F12 medium containing 10% FBS and cells were treated with the different treatment regimens.
The cells were treated in triplicate and harvested 24 hours later and subjected to dual-luciferases assay. The dual-luciferase assay was performed using a “Dual-Luciferase Reporter Assay System” from Promega (Madison, Wis.). The luminescence recorded is expressed as Relative Luminescence Units (RLU) and normalized to per mg protein. […]

TH promoter = experiment: Dual-luciferase TH promoter assay; format: cell-based, human; conditions: SH-SY5Y transfected with TH promoter-luciferase, 24 h
Protocol: Constructs encoding ERE and TH promoter conjugated to the firefly luciferase gene were used in the study. Human neuroblastoma SH-SY5Y cells were plated in 96-well plates at a density of 2×10^4 cells/well. The cells were transfected when 80% confluent with 0.25 μg of either ERE-firefly Luciferase reporter construct, LXRE-firefly Luciferase reporter construct, or TH promotor-firefly Luciferase promoter construct. Respective non-inducible reporter constructs containing constitutively expressing Renilla luciferase were used as negative internal controls. Constitutively expressing GFP constructs were used as positive control to determine transfection efficiency. Cells were incubated for 24 hours with Opti-MEM serum free medium (Invitrogen, Carlsbad, Calif.) containing the reporter constructs dissolved in transfection reagent. After 24 hours the medium was changed and the cells were incubated in normal DMEM/F12 medium containing 10% FBS and cells were treated with the different treatment regimens. The cells were treated in triplicate and harvested 24 hours later and subjected to dual-luciferases assay. The dual-luciferase assay was performed using a “Dual-Luciferase Reporter Assay System” from Promega (Madison, Wis.). The luminescence recorded is expressed as Relative Luminescence Units (RLU) and normalized to per mg protein. Unit value was assigned to control and the magnitude of differences among the samples is expressed relative to the unit value of control cells.

TNF-α = TNF-α levels in ARPE-19 cells; format: cell-based; conditions: ARPE-19, 24 h, 10 μM, alone vs control

For C[C@@H](CO)CCC[C@@H](C)[C@H]1CC[C@H]2[C@@H]3CC=C4C[C@@H](O)CC[C@]4(C)[C@H]3CC[C@]12C [27-OHC, 27-hydroxycholesterol], the “TH mRNA” value (TH mRNA) was “reduces”, the “nuclear translocation / nuclear levels of ERβ” value (ERβ) was “decrease” and the “decrease of ER-mediated transcription” value [1] was ~5 fold. The “reduction of TH promoter activity” value (TH promoter) was ~4 fold and the TNF-α levels (TNF-α) was “increases”.
